Data taken from PubChem BioAssay AID463074 (Broad Institute, 2010).
The source made the active and inactive calls.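 The calls were made as follows: active = AC50 no more than tenfold above the top dose tested, or full inhibition at every dose with a flat fit (cut at about 19 µM in these data); inconclusive = flat curve fit with inhibition between 30% and 70%, or poor fit; inactive = AC50 more than tenfold above the top dose tested.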

Tested on: HMLE_sh_eGFP viability, CellTiter-Glo luminescence, 72 h
Assay: viability loss of HMLE_sh_eGFP cells – cell-based, luminescence, counter-screen for HMLE_sh_ECad selective toxicity project, dose response (AID 463074);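 also: counterscreen control line to flag general toxicity for the HMLE_sh_ECad screen; potency for loss of viability as luminescence drops below DMSO wells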

SMILES | AC50
CCC1CCCCN1S(=O)(=O)c1ccc(S(=O)(=O)N(Cc2ccccn2)CC2CCCO2)cc1 (configuration not stated) | 2.49 µM
Cc1ccc(C(=O)Nc2ncc(Cc3ccccc3)s2)o1 | 1 µM
O=C(NCc1nc(-c2ccc(C(F)(F)F)cc2)no1)Nc1cc(Cl)cc(Cl)c1 | 2.46 µM
CC(C)N1CCN(Cc2ccc(OC3CCCC3)cc2)CC1CCO (configuration not stated) | 16.7 µM
Cc1cc(/C=C2\SC(=S)N(Cc3ccco3)C2=O)c(C)n1-c1ccccc1 | 2.92 µM
CC(C)=CCC/C(C)=C/Cc1c(O)ccc(C(=O)/C=C/c2ccc(O)cc2)c1O | 6.42 µM
C=C1C(=O)C=C[C@]2(C)C[C@@H]3OC(=O)[C@](C)(O)[C@H]3C[C@@H]12 | 9.76 µM
CCn1cc([N+](=O)[O-])c(C(=O)Nc2nc(-c3ccc(C)cc3)c(C)s2)n1 | 5.54 µM
O=c1c2ccccc2nc(COc2ccccc2)n1/N=C/c1cc([N+](=O)[O-])ccc1O | > 19.5 µM (inactive)
O=C(c1cnn2c1NC(c1ccc(Br)cc1)CC2C(F)(F)F)N1CCN2CCCC2C1 (configuration not stated) | 4.46 µM
CC(C)CC(=O)c1c(O)c(C=O)c(O)c2c1O[C@@]1(C)[C@@H](C2)C[C@H]2C[C@@H]1C2(C)C | 6.32 µM
CCCNCC1C(Oc2ccc(Cl)cc2Cl)C(=O)N1c1cccc(C)c1C (configuration not stated) | 7.2 µM
CCOC(=O)c1c(-c2ccccc2)csc1NC(=O)c1nn(CC)cc1Br | 0.478 µM
O=C(Nc1ccc2c(c1)OCO2)c1cc(-c2ccc(O)cc2)on1 | 1.33 µM
Cc1nn(Cc2ccccc2)c(C)c1C(=O)OCC(=O)c1cc(C)n(CC(F)(F)F)c1C | 14 µM
C=C(C)COc1ccc(-c2[nH]ncc2-c2ccc(OC)c(OC)c2)c(O)c1 | 4.5 µM
CCCN(CCC)CCNC(=O)c1cc2c(-c3ccc(Cl)cc3)nn(C)c2s1 | 5.1 µM
O=C(NCC(c1cccs1)N1CCOCC1)c1ccc(Cl)s1 (configuration not stated) | 1.76 µM
CCc1ccc2c(c1)[C@H]1OCC[C@H]1[C@@H](c1cccs1)N2 | 2.06 µM
O=C(NCc1ccc(Cl)cc1)c1cccc(NC(=O)c2ccccc2)c1 | 6.79 µM
Nc1ccc(CCN2CCN(c3cccc(C(F)(F)F)c3)CC2)cc1 | 1.42 µM
COc1ccc(-c2noc3c2-c2nc(-c4ccccc4C)sc2CC3)cc1 | 1.03 µM

SMILES | AC50
COc1ccc(C(=O)CSc2nnc(CN3CCCCC3)n2-c2ccc(Cl)cc2)cc1OC | 9.46 µM
O=C(Nc1ccc(O)cc1)c1ccc(NC(=O)c2cccs2)cc1 | 10 µM
COc1ccc(NS(=O)(=O)c2cc(NC(=O)c3ccc(=O)[nH]c3)ccc2N2CCCC2)cc1 | 1.1 µM
COc1ccc2nc(C)cc(SCC(=O)N/N=C/c3cccc4ccccc34)c2c1 | 1.86 µM
CC(=O)NNc1cccc(Cl)n1 | > 19.5 µM (inactive)
CCOc1ccc(OCc2cccc(C(=O)Nc3ccc(CN4CCCCC4)cc3)c2)cc1 | 5.38 µM
Cc1ccc(N=Nc2ccc(O)cc2)c(Br)c1 | 8.42 µM
CCN(CC)Cc1c(O)ccc2c1O/C(=C\C=C\c1ccccc1)C2=O | 18.8 µM
O=C(/C=C/c1ccc(F)cc1)c1ccccc1Br | 3.57 µM
CC(C)OC(=O)C(=O)NNc1ccccc1 | 1.22 µM
COc1ccccc1-c1oc2ccccc2c1C#CC1(N)CCCCC1 | 6.39 µM
O=C(N/N=C(\Cc1ncc[nH]1)c1ccccc1)c1ccncc1 | 3.85 µM
CCOc1cc2c(cc1OCC)-n1cccc1C(c1ccc(C(C)C)cc1)NC2 (configuration not stated) | 6.13 µM
Cc1ccnc2c1ccc1c(C)ccnc12 | 0.937 µM
COc1cc(OC)c(C=O)c(OC(=O)N2CCOCC2)c1 | > 19.5 µM (inactive)
O=C(NCCc1ccccc1)c1cc(-c2ccccc2)c(N2CCOCC2)s1 | 3.61 µM
CCCSc1nsc(NC(=O)Nc2ccc(F)cc2F)n1 | 4.87 µM
Cc1ccc(C(=O)N/N=C\c2ccc(-c3ccc(Cl)c(Cl)c3)o2)cn1 | 5.54 µM
CCN(CC)S(=O)(=O)c1ccc2c(c1)C(=NO)c1cc(S(=O)(=O)N(CC)CC)ccc1-2 | 0.756 µM
Cc1cc2c(cc1C)CSC(c1c(O)ccc3ccccc13)SC2 | 3.12 µM
COc1ccc(/C=C/C(=O)Nc2ccc(C34CC5CC(CC(O)(C5)C3)C4)cc2)cc1OC | 0.631 µM
CCOC(=O)C(=O)NNc1ccc(F)cc1 | 1.45 µM

SMILES | AC50
O=C(N/N=C/c1c[nH]c2ccccc12)C1CC1(c1ccccc1)c1ccccc1 (configuration not stated) | 7.04 µM
CCCCCCSc1cc(-c2nc3ccc(C)cn3c2NCCCC)ccc1OC | 6.6 µM
COc1ccc(CC2S/C(=N/N=C/c3ccccc3O)NC2=O)cc1 (configuration not stated) | 19.2 µM
O=C(Nc1cccc(Cl)c1N1CCCC1)c1cccc(-c2cc3ccccc3oc2=O)c1 | 0.869 µM
Cc1cccc(CNc2ccc(C(CC(N)=O)NC(=O)Cc3cccc4ccccc34)cc2[N+](=O)[O-])c1 (configuration not stated) | 13.7 µM
COc1ccc(C(=O)/C=C/c2ccc(N3CCCCC3)c([N+](=O)[O-])c2)c(OC)c1 | 6.6 µM
Cn1nnnc1Sc1ncnc2scc(-c3ccc(C(F)(F)F)cc3)c12 | 3.03 µM
O=C1c2cc(Br)ccc2N(Cc2ccc(Br)cc2)S(=O)(=O)C1c1cc(Cl)c(Cl)cc1[N+](=O)[O-] (configuration not stated) | 3.07 µM
CC1S/C(=N/N=C/c2cccc([N+](=O)[O-])c2)NC1=O (configuration not stated) | 3.48 µM
CCOC(=O)c1ccc(Nc2cc(C)nc(-c3ccccc3)n2)cc1 | 3.71 µM
Cc1ncc(CN2CCCC(C(=O)Nc3ccc(-c4cccc(F)c4)cc3)C2)s1 (configuration not stated) | 11.7 µM
COc1ccc(/C=N/NC(=S)Nc2ccccc2[N+](=O)[O-])cc1O | 5.87 µM
O=c1cc(N2CCCCC2)c(-c2ccccc2)nn1Cc1cccc(Cl)c1 | 4.56 µM
COc1ccc(OC)c(NC(=O)NNC(=O)COc2ccc(-c3ccccc3)cc2)c1 | > 19.5 µM (inactive)
OCCCn1c(CCNc2nc(-c3ccc(Cl)cc3)cs2)nc2cc(C(F)(F)F)ccc21 | 11.3 µM
C/C(NC(=O)c1cccc(F)c1)=C1/C(=O)C[C@@H]2[C@H]1C2(C)C | 2.13 µM
C=CCn1c(Sc2ncc([N+](=O)[O-])s2)n[nH]c1=O | 3.59 µM
CC(C)c1ccc(-c2cc(C(=O)N3N=C(C(F)F)CC3(O)C(F)F)c3ccccc3n2)cc1 (configuration not stated) | 6.3 µM
O=C(O)c1ccc(Cl)c(S(=O)(=O)N(Cc2ccccc2)c2ccc(F)cc2)c1 | 14.5 µM
CCOC(=O)c1sc(NC(=O)Nc2ccccc2Cl)cc1C | 7.58 µM
COC(=O)c1sc(-c2ccc(C(C)(C)C)cc2)cc1NC(=O)/C=C/C(=O)O | 4.28 µM
CCCCCCc1cc2cc(S(=O)(=O)c3ccc(Cl)cc3)c(=O)oc2cc1O | 9.25 µM

SMILES | AC50
COc1ccc(CNCC(O)COc2ccc(C(C)(C)c3ccccc3)cc2)cc1 (configuration not stated) | 3.22 µM
O=C(CCC1CCCC1)Nc1ccc(C(=O)NCc2cccnc2)cc1 | 1.04 µM
c1ccc(-c2cc(-c3ccncc3)nc3ccc4ccccc4c23)cc1 | 3.61 µM
CC(C)(C)c1cc(NCc2ccccn2)n2ncc(-c3ccccc3)c2n1 | 6.85 µM
COc1ccc(C2c3c(ncn(Cc4ccco4)c3=N)Oc3ccc4ccccc4c32)cc1 (configuration not stated) | 7.79 µM
CCOC(=O)c1c(-c2ccc(Cl)cc2)csc1NC(=O)CNCc1ccco1 | 5.2 µM
CC(=O)NC(c1ccccc1)c1cc([N+](=O)[O-])c2cccnc2c1O (configuration not stated) | 4.02 µM
Cc1cccc(-c2cc3nc4c(c(NCc5ccco5)n3n2)CCCC4)c1 | 7.25 µM
CC(C)(C)c1ccc(O)c(O)c1 | 13.3 µM
Cc1cc(C(=O)CN2C(=O)C(=O)N(Cc3ccccc3)C2=O)c(C)n1Cc1ccccc1 | 11.8 µM
Cc1ccc(/C=C/C(=O)Nc2ccc(Oc3ccccc3)cc2)o1 | 5.42 µM
Cc1nn(Cc2ccc(Cl)c(Cl)c2)c(C)c1NC(=O)c1cc(-c2ccc3c(c2)OCO3)on1 | 1.56 µM
C=CCn1c(O)c(C2=c3ccccc3=NC2=O)sc1=Nc1ccc(O)cc1 | 6.76 µM
CCC1(C)Cc2c(sc3nc(SC)n(Cc4ccccc4)c(=O)c23)CO1 (configuration not stated) | 2.77 µM
O=C(Nc1ccc(Cl)cc1)c1cc2c(cc1O)[nH]c1ccccc12 | 0.488 µM
C[C@@]12CCC=C[C@H]1[C@H](c1ccc(F)c(/C=C/c3ccccc3)c1)N(Cc1ccccc1)C2=O | 7.18 µM
CC(C)(C)[C@@H]1CCC(=O)N(CC[C@H](Sc2ccccc2)c2ccccc2)CC1 | 3.95 µM
O=C(/C(N=Nc1cccc(C(F)(F)F)c1)=C(/O)c1cccs1)C(F)(F)F | 2.17 µM
CCOC(=O)/C(=C\c1ccc([N+](=O)[O-])cc1)C(=O)c1cc(C(C)=O)c(Nc2ccccc2)s1 | 1.07 µM
O=Nc1c(O)n(Cc2ccc(Cl)c(Cl)c2)c2ccccc12 | 6.85 µM
CC1CCCC(NC(=S)Nc2ccc(SC(F)F)cc2)C1C (configuration not stated) | 6.34 µM
Cc1snc(S(=O)(=O)/C(C#N)=N/Nc2ccc(C(F)(F)F)cc2)c1C#N | 19.7 µM

SMILES | AC50
Cc1cc(-c2ccccc2)nc(N/N=C/c2ccc(O)cc2O)n1 | 7.96 µM
COc1ccc(CN2C(=O)c3cccnc3C2Nc2cc(Cl)ccc2OC)cc1 (configuration not stated) | > 19.5 µM (inactive)
Nc1ccccc1N=Cc1c(O)n(CCC2=CCCCC2)c(=O)[nH]c1=O | > 19.5 µM (inactive)
O=C(Nc1ccc(Cl)c(C(F)(F)F)c1)NC1CC2CCCC(C1)N2Cc1ccccc1 (configuration not stated) | 6.8 µM
CC(C)(C)c1ccc(NC(=O)N2CCCN(c3c(Cl)cncc3Cl)CC2)cc1 | 2.85 µM
O=C(CCCN1C(=O)/C(=C/c2ccccc2)SC1=S)NCCCn1ccnc1 | > 19.5 µM (inactive)
Cc1ccc(N2C(=O)NC(=O)/C(=C\C=C\c3ccco3)C2=O)cc1 | 4.54 µM
O=C(NC(=O)N1CCN(c2cccc(Cl)c2)CC1)c1ccc(Cl)cc1 | 0.573 µM
Cc1nn(-c2ccccc2)c(N2CCCCC2)c1/C=N/O | 1.69 µM
CCOC(=O)C(C(=O)OCC)C(Nc1ccc(Br)cc1)c1ccccc1 (configuration not stated) | 19.8 µM
O=C(Nc1ccc(Cn2cccn2)cc1)c1ccc(COc2cccc(Br)c2)cc1 | 0.302 µM
CCN(CC)CCCNC(=O)c1cc(-c2ccccc2)c(N2CCCCC2)s1 | 3.29 µM
CCOC(=O)c1c(CSc2ccccc2)n(C)c2cc(Br)c(OCC(O)CNC(CO)(CO)CO)cc12 (configuration not stated) | 1.84 µM
NC(=O)CC(NC(=O)Cc1ccc(Br)cc1)c1ccc(NC2CC3CCC2C3)c([N+](=O)[O-])c1 (configuration not stated) | 6.74 µM
COc1ccc(-c2cn[nH]c2-c2ccc(OCc3ccccc3)cc2O)cc1 | 7.02 µM
Cc1ccc(Oc2c(C(N)=O)cc([N+](=O)[O-])cc2[N+](=O)[O-])cc1 | 3.84 µM
CC(=O)Nc1ccc(NC(=O)c2nc(S(=O)(=O)Cc3cccc(C)c3)ncc2Cl)cc1 | 4.99 µM
CC(=O)c1ccc(NC(=O)c2ccc([N+](=O)[O-])o2)cc1 | 7.8 µM
COc1ccc(OC)c(NC(=O)c2nnn(Cc3ccccc3C)c2N)c1 | 3.61 µM
